Experimental data from PMC9436819 (JACC: Basic to Translational Science, 2022).
“Also recorded” adds a separate entry of the source.

Assays:
Format in all cases: in vivo, human
[1] = Plasma pharmacokinetics in the CYP2D6 poor metabolizer cohort
Protocol: CYP2D6 genotypes were determined at screening for all study participants; those identified as CYP2D6-PMs were excluded from the SAD and MAD cohorts but were invited to participate in the CYP2D6-PM cohort. The first individual in the CYP2D6-PM cohort was dosed after the SAD 25-mg cohort (Figure 1). […] Nine participants were randomized (7:2), with a sentinel dosing group consisting of the first 2 participants treated. For all study groups, blood samples for PK assessment were obtained predose, up to 12 times daily on day 1, and then at regular intervals throughout the study (see Supplemental Appendix for details). Standard noncompartmental methods were used to calculate PK parameters using Phoenix WinNonlin, version 7.0; actual sample collection times were used.

healthy adults = experiment: Overall safety and tolerability (AEs, ECG, vital signs, laboratory tests), all cohorts
Protocol: Safety was assessed by the incidence of adverse events (AEs) and by the incidence of reduced LVEF. Treatment-emergent AEs (TEAEs) were defined as AEs that began or increased after study drug administration. All AEs were coded using the Medical Dictionary for Regulatory Activities, version 21.1, and graded using the National Cancer Institute Common Terminology Criteria for AEs (version 4.03) 5-point severity scale.[18] Each AE was judged as either related or unrelated to the study drug by the treating investigator. Clinical laboratory tests were obtained at regular intervals in all cohorts.
For safety monitoring, participants in all cohorts had periodic echocardiograms, which were assessed by a cardiologist. In the SAD and MAD cohorts, echocardiograms were also reviewed by an echocardiography core laboratory for PD assessments, as described in the section on echocardiographic methods. In addition, participants in all cohorts were monitored with continuous 12-lead ECG recording using Holter monitors. For safety monitoring, a single 12-lead ECG was extracted at screening, predose, and periodically throughout follow-up and interpreted by the investigator. In the SAD, MAD, and CYP2D6-PM cohorts, cardiodynamic ECGs (triplicate 10-second, 12-lead ECG recordings) were obtained before the corresponding PK blood sample (see the Supplemental Appendix for full details on blood sampling), and ECG intervals were quantitated by qualified readers.

[2] = Plasma pharmacokinetics after single oral doses (SAD cohorts); conditions: for half-life / Cmax / AUC / Tmax / AUC(0-inf) / Vd/F: human, plasma; for half-life: po; for AUC: read-out: AUC24; for Vd/F: read-out: Vz/F
Protocol: The SAD portion of the study used a randomized, double-blind, placebo-controlled, sequential, escalating dose design, in which participants received single ascending oral doses of the study drug. Seven cohorts were dosed in sequence (Figure 1).
For all study groups, blood samples for PK assessment were obtained predose, up to 12 times daily on day 1, and then at regular intervals throughout the study (see Supplemental Appendix for details). Standard noncompartmental methods were used to calculate PK parameters using Phoenix WinNonlin, version 7.0; actual sample collection times were used.
Statistical A nalysis of P harm acokinetic (PK) P aram eters
The PK analyses w ere int ended to assess single- dose kinetics, multiple-dose (steady state) […]
and the influence of food on the absorption and eli mination of aficamten.
For the SAD cohort, dos e proportionality of afi camten was evaluat ed using a power model on […]
and day 14 or 17. Several considerations were taken into account when assessing dose proportionality of the drug, such as results derived from the power model statistical analysis (e.g., the slope estimate and width of the 2- sided 95% confidence intervals [CIs ]), qualitative assessment specific to th e PK of the drug, and clinical relev ance. For th e SAD cohort, the […]
time curve (A UC)from time 0 to the time of the last measurable concentration(AUC last), AUC […]
plasma concent ration ( C max). […]
The statistical linear relationship between the ln-transformed PK parameters and the ln-transformed dos e was verified by including the quadratic (ln Dos e)2 and cubic (ln Dose) 3 effects.
The statistical linear relationship was established if the quadratic and cubi c effects were not […]
significant, but of such small magnitude that they were not clinically relevant. The dose-proportionality analysis was performed using SAS® PROC MIXED.

[3] = CYP2D6 poor metabolizers, single 10 mg, arithmetic mean ± SD, n = 7
[4] = human, plasma, oral, CYP2D6 poor metabolizers, single 10 mg, geometric mean (geometric CV%), n = 7
[5] = single oral dose 1 mg, geometric mean (geometric CV%), n = 6
[6] = single oral dose 3 mg, geometric mean (geometric CV%), n = 6
[7] = single oral dose 3 mg, mean ± SD, n = 5
[8] = single oral dose 10 mg, mean ± SD, n = 4
[9] = single oral dose 25 mg, geometric mean (geometric CV%), n = 6
[10] = single oral dose 25 mg, mean ± SD, n = 6
[11] = single oral dose 40 mg, geometric mean (geometric CV%), n = 6
[12] = single oral dose 40 mg, mean ± SD, n = 5
[13] = single oral dose 50 mg, geometric mean (geometric CV%), n = 11
[14] = single oral dose 50 mg, mean ± SD, n = 9

CL/F [1, 3]: 3.6 ± 1.4 L/h
t½ [1, 3]: 110 h
half-life ([1]; human, plasma, oral, 10 mg, CYP2D6 poor metabolizers, single 10 mg, arithmetic mean ± SD, n = 7, read-out: t½ (converted)): 110 ± 47.3 h
Vd/F ([1]; human, plasma, oral, CYP2D6 poor metabolizers, single 10 mg, arithmetic mean ± SD, n = 7, read-out: Vz/F): 506 ± 84.4 L
AUC(0-inf) [1, 4]: 2.97 µg·h/mL
Cmax [1, 4]: 0.0573 µg/mL
AUC ([1]; human, plasma, oral, CYP2D6 poor metabolizers, single 10 mg, geometric mean (geometric CV%), n = 7, read-out: AUC24): 0.495 µg·h/mL
Tmax ([1]; human, plasma, oral, CYP2D6 poor metabolizers, single 10 mg, median (range), n = 7): 1 h
Effect of CYP2D6 poor metabolizer phenotype on the PK ([1]; single 10 mg): not affected; also recorded: no effect
Plasma mean concentrations in CYP2D6 poor metabolizers versus extensive metabolizers ([1]; single 10-mg dose): Modestly lower
half-life ([2]; 3 mg, single oral dose 3 mg, mean ± SD, n = 5, read-out: t1/2 (converted)): 75.1 ± 21.8 h
half-life ([2]; 10 mg, single oral dose 10 mg (extensive metabolizers), mean ± SD, n = 4, read-out: t1/2 (converted)): 85 h
half-life ([2]; 25 mg, single oral dose 25 mg, mean ± SD, n = 6, read-out: t1/2 (converted)): 79.8 ± 10 h
half-life ([2]; 40 mg, single oral dose 40 mg, mean ± SD, n = 4, read-out: t1/2 (converted)): 79.2 ± 18.5 h
half-life ([2]; 50 mg, single oral dose 50 mg, mean ± SD, n = 9, read-out: t1/2 (converted)): 80.4 ± 14.9 h
half-life ([2]; single oral doses, read-out: Mean half-life, range across single-dose cohorts): 75 to 85 h
Cmax [2, 5]: 0.0058 µg/mL
AUC [2, 5]: 0.05 µg·h/mL
Tmax ([2]; single oral dose 1 mg, median (range), n = 6, read-out: Tmax): 1 h
AUC(0-inf) ([2]; single oral dose 3 mg, geometric mean (geometric CV%), n = 5): 0.823 µg·h/mL
Cmax [2, 6]: 0.0261 µg/mL
AUC [2, 6]: 0.174 µg·h/mL
Vd/F [2, 7]: 393 ± 122 L
Tmax ([2]; single oral dose 3 mg, median (range), n = 6, read-out: Tmax): 1.3 h
AUC ([2]; single oral dose 10 mg (extensive metabolizers), geometric mean (geometric CV%), n = 6): 0.679 µg·h/mL
AUC(0-inf) ([2]; single oral dose 10 mg, geometric mean (geometric CV%), n = 4): 3.43 µg·h/mL
Cmax ([2]; single oral dose 10 mg, geometric mean (geometric CV%), n = 6): 0.0705 µg/mL
Vd/F [2, 8]: 362 ± 108 L
Tmax ([2]; single oral dose 10 mg, median (range), n = 6, read-out: Tmax): 2.8 h
AUC(0-inf) [2, 9]: 7.11 µg·h/mL
Cmax [2, 9]: 0.193 µg/mL
AUC [2, 9]: 1.49 µg·h/mL
Vd/F [2, 10]: 405 ± 56.6 L
Tmax ([2]; single oral dose 25 mg, median (range), n = 6, read-out: Tmax): 1.8 h
AUC(0-inf) ([2]; single oral dose 40 mg, geometric mean (geometric CV%), n = 5): 11.9 µg·h/mL
Cmax [2, 11]: 0.383 µg/mL
AUC [2, 11]: 2.53 µg·h/mL
Vd/F [2, 12]: 382 ± 66.9 L
Tmax ([2]; single oral dose 40 mg, median (range), n = 6, read-out: Tmax): 1 h
AUC(0-inf) ([2]; single oral dose 50 mg, geometric mean (geometric CV%), n = 9): 13.7 µg·h/mL
Cmax [2, 13]: 0.359 µg/mL
AUC [2, 13]: 2.83 µg·h/mL
Vd/F [2, 14]: 431 ± 123 L
Tmax ([2]; single oral dose 50 mg, median (range), n = 11, read-out: Tmax): 1 h
Tmax ([2]; single oral dose 75 mg, median (range), n = 1, read-out: Tmax): 0.5 h
Cmax ([2]; single oral dose 75 mg, n = 1): 1.22 µg/mL
AUC ([2]; single oral dose 75 mg, n = 1): 4.56 µg·h/mL
Tmax ([2]; single oral doses 1 to 75 mg, read-out: Median time to reach peak concentrations, range across doses): 0.5 to 2.76 h
CL/F [2, 7]: 4.2 ± 3.1 L/h
t1/2 ([2]; single oral dose 10 mg (extensive metabolizers), mean ± SD, n = 4): 84.7 ± 17.7 h
CL/F [2, 8]: 3.0 ± 0.7 L/h
CL/F [2, 10]: 3.6 ± 0.5 L/h
CL/F [2, 12]: 3.4 ± 0.6 L/h
CL/F [2, 14]: 3.8 ± 1.1 L/h
Maximum time to maximum observed concentration across all participants ([2]; single oral doses): 4.0 h
SMILES: CCc1nc(-c2ccc3c(c2)CC[C@H]3NC(=O)c2cnn(C)c2)no1 [Aficamten]
Discontinuation of the study because of AEs (healthy adults; all cohorts): no participants discontinued
Serious AEs (healthy adults; all cohorts): no serious AEs; also recorded: without serious AEs
Vital signs at postdose timepoints (healthy adults; all cohorts): within normal limits
QTcF at baseline or any assessment during the dosing interval (healthy adults; all cohorts, exception of 2 individuals with baseline QTcF ≥440 ms whose QTcF increased by 3 and 13 ms): ≤ 450 ms
Increase in QTcF interval (healthy adults; all cohorts, only exception was 1 participant in the SAD placebo group): ≤ 30 ms
Serum chemistry, hematology, or urinalysis findings (healthy adults; during the study): No clinically significant
Effect on the QT interval (cardiodynamic assessments) (healthy adults; following single or multiple doses): no evidence of an effect
Tolerability (healthy adults; single doses of ≤50 mg or daily dosing of ≤10 mg for 14 or 17 days): safe and well tolerated
Severity of observed TEAEs (healthy adults; single-dose and multiple-dose administration): generally mild (grade 1)
Dose proportionality of Cmax and exposure ([2]; single oral doses 1 to 50 mg): dose-proportional; also recorded: dose proportionality; also recorded: linear kinetics
